In patent US7282522B2, “Hydroxamic acid derivatives and the method for preparing thereof” (Amorepacific Corporation, priority 2003, dated 2007):

What was measured:
collagenase = assay: Inhibition of collagenase expression in human fibroblasts (ELISA kit); assay type: cell-based; conditions: 10^−4M, 24 hours, serum-free medium, relative to control group = 100
How it was run: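 Serum-starved human fibroblasts were treated for 24 h with 10^−4M test material in serum-free DMEM. Collagenase in the culture fluid was measured by sandwich ELISA read at 405 nm. Values are expressed as % of the untreated control (=100).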

rabbits = assay: Primary skin irritation test on animals (Draize P.I.I.); conditions: depilated back; for P.I.I. (Primary Irritation Index): 0.5 ml of 1% solution in 1,3-butylene glycol:ethanol 7:3, observed 24 or 72 hours later; for Evaluation (skin irritation): 1% solution, according to Draize's P.I.I.
white guinea pigs = assay: Phototoxicity test (UVA irradiation); conditions: for Evaluation (phototoxicity): 1%(w/v) solution, UVA 15 J/cm^2; for Phototoxic index: 50 μl of 1%(w/v) solution, UVA 320~380 nm 15 J/cm^2, observed 24, 48 and 72 hours
elastase = assay: Inhibition of elastase expression in human fibroblasts (ELISA kit); assay type: cell-based; conditions: 10^−4M, 24 hours, serum-free medium, relative to control group = 100
How it was run: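 Elastase in fibroblast culture fluid quantified by sandwich ELISA: 3 h capture, then chromophore-conjugated secondary antibody, then colour development, stopped with 1M sulfuric acid. Absorbance read at 405 nm. Expression given as % of the untreated control absorbance, with control set to 100.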

procollagen type I = assay: Effect on collagen biosynthesis (procollagen type I ELISA) in human fibroblasts; assay type: cell-based; conditions: 10^−4M, 24 hours, serum-free medium, relative to control group = 100
Experimental: Human fibroblasts were seeded into 24-well plate at 1×10^5 cells per well and then cultured to 90% of growth.
For each supernatant, procollagen production was measured with procollagen type I ELISA kit.

RARγ = biological target: T1, RARγ (Homo sapiens, UniProt P13631); assay: RARE-luciferase reporter assay in transfected CV-1 cells (affinity to retinoic acid receptor), RARγ; assay type: cell-based; conditions: treated 24 hours at final concentration 10^−4M, control group 5000
T1 construct: expressed in transfected cells; host or cells: CV-1 cells (ATCC)
T1 sequence (P13631 1-454): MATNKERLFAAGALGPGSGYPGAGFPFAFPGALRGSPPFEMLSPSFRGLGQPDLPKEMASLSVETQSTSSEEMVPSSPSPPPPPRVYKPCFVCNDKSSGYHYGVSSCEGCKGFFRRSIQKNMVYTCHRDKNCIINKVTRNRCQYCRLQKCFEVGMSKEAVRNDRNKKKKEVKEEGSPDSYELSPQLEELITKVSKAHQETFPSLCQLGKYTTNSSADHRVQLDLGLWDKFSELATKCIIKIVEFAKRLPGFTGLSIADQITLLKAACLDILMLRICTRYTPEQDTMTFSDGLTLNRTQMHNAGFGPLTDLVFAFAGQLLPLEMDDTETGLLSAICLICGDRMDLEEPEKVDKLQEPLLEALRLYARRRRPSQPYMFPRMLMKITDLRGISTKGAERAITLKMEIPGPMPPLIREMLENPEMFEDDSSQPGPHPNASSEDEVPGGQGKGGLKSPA
How it was run: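 CV-1 cells in DMEM with 2.5% FBS, 5,000 per well, transfected 24 h after seeding with 10 ng pECE-RARα, pECE-RARγ, 100 ng RARE-tk-Luc reporter and 100 ng β-galactosidase vector. Read-out is RARE-driven luciferase.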

RARα = biological target: T2, RARα (Homo sapiens, UniProt P10276); assay: RARE-luciferase reporter assay in transfected CV-1 cells (affinity to retinoic acid receptor), RARα; assay type: cell-based; conditions: treated 24 hours at final concentration 10^−4M, control group 1000
T2 construct: expressed in transfected cells; host or cells: CV-1 cells (ATCC)
T2 sequence (P10276 1-462): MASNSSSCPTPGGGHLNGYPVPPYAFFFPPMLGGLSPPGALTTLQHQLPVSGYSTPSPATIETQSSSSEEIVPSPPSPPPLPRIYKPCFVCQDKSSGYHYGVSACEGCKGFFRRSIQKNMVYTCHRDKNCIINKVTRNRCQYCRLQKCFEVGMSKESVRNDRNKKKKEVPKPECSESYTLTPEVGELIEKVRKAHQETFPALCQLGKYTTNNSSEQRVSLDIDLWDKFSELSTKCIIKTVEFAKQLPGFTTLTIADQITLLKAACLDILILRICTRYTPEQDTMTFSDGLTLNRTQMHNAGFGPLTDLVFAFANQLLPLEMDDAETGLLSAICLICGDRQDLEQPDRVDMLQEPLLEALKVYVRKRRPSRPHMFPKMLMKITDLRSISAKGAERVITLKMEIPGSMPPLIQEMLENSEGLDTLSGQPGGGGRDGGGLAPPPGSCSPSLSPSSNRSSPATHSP
How it was run: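 CV-1 cells co-transfected with pECE-RARα or pECE-RARγ, RARE-tk-Luc reporter and β-galactosidase vector. Starting 24 h post-transfection, cells were treated for 24 h with compounds at a final 10^−4M; luciferase reporter read-out.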

SMILES | Collagenase expression (%) (collagenase) | P.I.I. (Primary Irritation Index) (rabbits) | Evaluation (skin irritation) (rabbits) | Evaluation (phototoxicity) (white guinea pigs) | Phototoxic index (white guinea pigs) | Elastase expression (%) (elastase) | Collagen biosynthesis (%) (procollagen type I) | Luciferase activity RARγ (RARγ) | Luciferase activity RARα (RARα)
CCc1ccc(C(=O)Nc2ccc(CC(=O)NO)cc2)cc1 [Example 26, N-[4-(N-hydroxycarbamoylmethyl)phenyl][4-ethylphenyl]carboxyamide] | 78 | 0.321 | No irritation | No phototoxicity (lower value than 0.5, criterion value to be estimated as no phototoxicity) | 0 | 86 | 123 | 11200 | 17500
CCCc1ccc(C(=O)Nc2ccc(CC(=O)NO)cc2)cc1 [Example 27, N-[4-(N-hydroxycarbamoylmethyl)phenyl][4-propylphenyl]carboxyamide] | 87 | 0.568 | No irritation | No phototoxicity (lower value than 0.5, criterion value to be estimated as no phototoxicity) | 0 | 87 | 112 | 11300 | 13920
CC(C)c1ccc(C(=O)Nc2ccc(CC(=O)NO)cc2)cc1 [Example 28, N-[4-(N-hydroxycarbamoylmethyl)phenyl][4-isopropylphenyl]carboxyamide] | 67 | 0.765 | No irritation | No phototoxicity (lower value than 0.5, criterion value to be estimated as no phototoxicity) | 0 | 79 | 121 | 10700 | 12900
CCCCc1ccc(C(=O)Nc2ccc(CC(=O)NO)cc2)cc1 [Example 29, N-[4-(N-hydroxycarbamoylmethyl)phenyl][4-butylphenyl]carboxyamide] | 77 | 0.234 | No irritation | No phototoxicity (lower value than 0.5, criterion value to be estimated as no phototoxicity) | 0 | 70 | 132 | 10600 | 18900
CC(C)(C)c1ccc(C(=O)Nc2ccc(CC(=O)NO)cc2)cc1 [Example 30, N-[4-(N-hydroxycarbamoylmethyl)phenyl][4-tert-butylphenyl]carboxyamide] | 83 | 0.456 | No irritation | No phototoxicity (lower value than 0.5, criterion value to be estimated as no phototoxicity) | 0 | 69 | 121 | 12000 | 23500
Cc1ccc(C(=O)Nc2ccc(CC(=O)NO)cc2)cc1C [Example 31, N-[4-(N-hydroxycarbamoylmethyl)phenyl][3,4-dimethylphenyl]carboxyamide] | 81 | 0.567 | No irritation | No phototoxicity (lower value than 0.5, criterion value to be estimated as no phototoxicity) | 0 | 63 | 109 | 10700 | 23100
O=C(Cc1ccc(NC(=O)C23CC4CC(CC(C4)C2)C3)cc1)NO [Example 32, N-[4-(N-hydroxycarbamoylmethyl)phenyl]adamantyl carboxyamide] | 79 | 0.375 | No irritation | No phototoxicity (lower value than 0.5, criterion value to be estimated as no phototoxicity) | 0 | 74 | 125 | 10000 | 18000
